This note sets out measurements from US12528818B2, “Compositions and methods for inhibition of RAS” (Leidos Biomedical Research, Inc., priority 2021, dated 2026).

The subject of one assay is pERK in NCI-H358 cells. Kind of assay: Cell-based pERK HTRF assay (pERK inhibition in H358 cells). The settings on record: Homo sapiens, NCI-H358, 0.5 h, pERK inhibition IC50, NCI-H358 cells, 30 min incubation; read-out: PERK in H358 cell. As to the method: On Day 1, cells (NCI-H358) were seeded into 96-well plates at 4×10^4 cells/well in complete growth media (RPMI, 10% FBS).
The source plate was created with compounds diluted in media at 5-fold the final assay concentration. […] 20 μL was transferred onto the cell plates (final volume in wells was 100 μL). Plates were harvested after 30 min incubation by aspirating media and adding kit-supplied 1× supplemented lysis buffer to all wells (75 μl per well). Plates were then placed on a plate shaker and incubated at 850 rpm for an additional 30 min.
Antibody mixture solution was prepared by diluting aliquoted d2 and Eu Cryptate antibodies 1:20 in kit supplied detection buffer, then mixed the diluted antibodies solutions (1:1 v:v).
Samples were homogenized by pipetting up and down and then transferred (16 μL of cell lysates) from the 96-well cell culture plate to two wells of the HTRF 384-well detection plate containing the antibody solution. Plates were centrifuged (524 g for 1 min) and allowed to incubate between 4 and 24 h at room temperature. Maximum signal is reached after 4 h incubation time and remains stable over a period of 24 hours. Therefore, readings can be made between 4 and 24 h of incubation.
A general note: TR-FRET usually uses a lanthanide donor and a delayed reading to cut background.
Turning to `C=CC(=O)N1C[C@@H](F)[C@@H](N(C)c2nc(OC[C@@]34CCCN3C[C@H](F)C4)nc3cc(-c4ccc(F)c5sc(N)c(C#N)c45)c(C#N)cc23)C1` [Compound 372], the IC50 is less than 100 nM. On the same count and under the same terms, the same measure for `C=CC(=O)N1C[C@H](C)N(c2nc(OC[C@@]34CCCN3C[C@H](F)C4)nc3c(F)c(-c4ccc(F)c5sc(N)nc45)c(C(F)(F)F)cc23)C[C@H]1C` [Compound 202, 1-((2R,5S)-4-(7-(2-amino-7-fluorobenzo[d]thiazol-4-yl)-8-fluoro-2-(((2R,7aS)-2-fluorotetrahydro-1H-pyrrolizin-7a(5H)-yl)methoxy)-6-(trifluoromethyl)quinazolin-4-yl)-2,5-dimethylpiperazin-1-yl)prop-2-en-1-one]: less than 100 nM. Still for that read-out and setting: the same measure for `C=CC(=O)N1CCC(N(CC)c2nc(OC[C@@]34CCCN3C[C@H](F)C4)nc3cc(-c4ccc(F)c5sc(N)c(C#N)c45)ccc23)[C@H]1C` (stereo partly shown) [Compound 431]: less than 100 nM; for `C=CC(=O)N1CCN(c2nc(OC[C@]34CCCN3C[C@H](F)C4)nc3c(F)c(-c4ccc(F)c5sc(N)nc45)c(C(F)(F)F)cc23)C[C@@H]1C` [Compound 165]: less than 100 nM; for `C=CC(=O)N1CCC(N(C)c2nc(OC[C@@]34CCCN3C[C@H](F)C4)nc3c(F)c(-c4ccc(F)c5sc(N)nc45)ccc23)[C@H]1C` (stereo partly shown) [Compound 413]: 100 to 1000 nM. The same measure, in the same setting: in the case of `C=CC(=O)N1CC[C@@H](N(C)c2nc(OC[C@@]34CCCN3C[C@H](F)C4)nc3c(F)c(-c4ccc(F)c5sc(N)nc45)c(Cl)cc23)C1` [Compound 195, 1-((3R)-3-((7-(2-amino-7-fluorobenzo[d]thiazol-4-yl)-6-chloro-8-fluoro-2-(((2R,7aS)-2-fluorotetrahydro-1H-pyrrolizin-7a(5H)-yl)methoxy)quinazolin-4-yl)(methyl)amino)pyrrolidin-1-yl)prop-2-en-1-one] it was less than 100 nM; in that of `C=CC(=O)N1CC[C@@H](N(CC)c2nc(OCC34CCCN3CCC4)nc3c(F)c(-c4ccc(F)c5sc(N)nc45)c(C(F)(F)F)cc23)C1` [Compound 249], 100 to 1000 nM; in that of `C=CC(=O)N1CCC(N(C)c2nc(OC[C@@H]3CCCN3C)nc3cc(-c4ccc(F)c5sc(N)c(C#N)c45)c(F)cc23)[C@H]1COC` (stereo partly shown) [Compound 441], 100 to 1000 nM. In the case of `C=CC(=O)N1CCN(c2nc(OC[C@]34CCCN3C[C@H](F)C4)nc3c(F)c(-c4ccc(F)c5sc(N)nc45)c(C(F)(F)F)cc23)CC1` [Compound 150], the IC50 was less than 100 nM. With `C=CC(=O)N1CC[C@@H](N(C)c2nc(OC[C@@]34CCCN3C[C@H](F)C4)nc3c(F)c(-c4ccc(F)c5sc(N)c(C#N)c45)c(Cl)cc23)[C@H]1C` [Compound 395, 4-(4-((1-acryloyl-2-methylpyrrolidin-3-yl)(methyl)amino)-6-chloro-8-fluoro-2-(((2R,7aS)-2-fluorotetrahydro-1H-pyrrolizin-7a(5H)-yl)methoxy)quinazolin-7-yl)-2-amino-7-fluorobenzo[b]thiophene-3-carbonitrile], the IC50 is less than 100 nM.

`C=CC(=O)N1CCC(N(C)c2nc(OC[C@@H]3C[C@@H](F)CN3C)nc3c(F)c(-c4ccc(F)c5sc(N)c(C#N)c45)ccc23)[C@H]1C` (stereo partly shown) [Compound 429]: the IC50 is less than 100 nM. On the same count and under the same terms, the same measure for `C=CC(=O)N1CCN(c2nc(OC[C@@]34CCCN3C[C@H](F)C4)nc3c(F)c(-c4ccc(F)c5sc(N)c(C#N)c45)c(C(F)(F)F)cc23)CC12CC2` [Compound 322]: less than 100 nM. The same measure, in the same setting: the same measure for `C=CC(=O)N1CCN(c2nc(OC[C@@H]3CCCN3CCF)nc3c(F)c(-c4ccc(F)c5sc(N)nc45)c(C(F)(F)F)cc23)CC1` [Compound 153]: less than 100 nM; for `C=CC(=O)N1CC[C@@H]2[C@H]1CN2c1nc(OC[C@@]23CCCN2C[C@H](F)C3)nc2c(F)c(-c3ccc(F)c4sc(N)c(C#N)c34)c(C(F)(F)F)cc12` [Compound 339]: less than 100 nM; for `C=CC(=O)N1CCC(N(CC)c2nc(OC[C@@H]3C[C@@H](OC)CN3C)nc3c(F)c(-c4ccc(F)c5sc(N)c(C#N)c45)c(C(F)(F)F)cc23)[C@H]1COC` (stereo partly shown) [Compound 427]: less than 100 nM. With `C=CC(=O)N1CC(Nc2nc(OC[C@@H]3CCCN3C)nc3c(F)c(-c4ccc(F)c5sc(N)nc45)c(-c4ccoc4)cc23)C1` [Compound 93], the IC50 was more than 1000 nM. Same read-out and setting: the same measure for `C=CC(=O)N1CC(N(C)c2nc(OC[C@@]34CCCN3C[C@H](F)C4)nc3c(F)c(-c4ccc(F)c5sc(N)nc45)c(Cl)cc23)C1` [Compound 247]: less than 100 nM. Still for that read-out and setting: in the case of `C=CC(=O)N1C[C@H](C)N(c2nc(OC[C@@]34CCCN3C[C@H](F)C4)nc3c(F)c(-c4ccc(F)c5sc(N)c(C#N)c45)c(C(F)(F)F)cc23)C[C@@H]1C` [Compound 349] it was less than 100 nM. Same read-out and setting: the same measure for `C=CC(=O)N1CC[C@@H](N(C)c2nc(OC[C@@]34CCCN3C[C@H](OC)C4)nc3c(F)c(-c4ccc(F)c5sc(N)nc45)c(C(F)(F)F)cc23)C1` [Compound 290]: less than 100 nM. For the compound `C=CC(=O)N1C[C@H](C)N(c2nc(OC[C@]3(C)CCCN3C)nc3c(F)c(-c4ccc(F)c5sc(N)c(C#N)c45)c(C(F)(F)F)cc23)C[C@H]1C` [Compound 447, 4-(4-((2S,5R)-4-acryloyl-2,5-dimethylpiperazin-1-yl)-2-(((S)-1,2-dimethylpyrrolidin-2-yl)methoxy)-8-fluoro-6-(trifluoromethyl)quinazolin-7-yl)-2-amino-7-fluorobenzo[b]thiophene-3-carbonitrile], the IC50 was less than 100 nM. Same read-out and setting: in the case of `C=CC(=O)N1[C@H](C)CN(c2nc(OC[C@]34CCCN3C[C@H](F)C4)nc3c(F)c(-c4ccc(F)c5sc(N)nc45)c(C(F)(F)F)cc23)C[C@@H]1C` [Compound 215] it was less than 100 nM. On the same count and under the same terms, in the case of `C=CC(=O)N1C[C@H](N(C)c2nc(OC[C@@]34CCCN3C[C@H](F)C4)nc3c(F)c(-c4ccc(F)c5sc(N)c(C#N)c45)ccc23)C[C@H]1C` [Compound 319] it was less than 100 nM.

Take `C=CC(=O)N1CCN(c2c(C#N)c(OC[C@@]34CCCN3C[C@H](F)C4)nc3c(F)c(-c4ccc(F)c5sc(N)nc45)c(Cl)cc23)CC1` [Compound 200]: the IC50 was less than 100 nM. On the same count and under the same terms, the same measure for `C=C(F)C(=O)N1CCN(c2nc(OC[C@@]34CCCN3C[C@H](F)C4)nc3c(F)c(-c4ccc(F)c5sc(N)nc45)c(C(F)(F)F)cc23)CC1` [Compound 186]: 100 to 1000 nM. Still for that read-out and setting: in the case of `C=CC(=O)N1CC[C@@H](N(C)c2nc(N3CC(N4CC5(CC5)C4)C3)nc3c(F)c(-c4ccc(F)c5sc(N)c(C#N)c45)c(C(F)(F)F)cc23)C1` [Compound 340] it was less than 100 nM; in that of `C=CC(=O)N1CCC(N(C)c2nc(OCCOC)nc3c(F)c(-c4ccc(F)c5sc(N)c(C#N)c45)ccc23)[C@H]1C` (stereo partly shown) [Compound 466], more than 1000 nM. On the same count and under the same terms, in the case of `C=CC(=O)N1CC[C@@H]2[C@H]1CN2c1nc(OC[C@@H]2CCCN2C)nc2c(F)c(-c3ccc(F)c4sc(N)nc34)c(Cl)cc12` [Compound 66] it was less than 100 nM.

Take `C=CC(=O)N1CCN(c2nc(OC[C@@]34CCCN3C[C@H](F)C4)nc3c(F)c(-c4ccc(F)c5sc(N)c(C#N)c45)c(C(F)(F)F)cc23)[C@@H](C)C1` [Compound 347]: the IC50 was less than 100 nM. Same read-out and setting: the same measure for `C=CC(=O)N1CCC(N(C)c2nc(OC[C@@H]3CC4(CC4)CN3C)nc3c(F)c(-c4ccc(F)c5sc(N)c(C#N)c45)ccc23)[C@H]1COC` (stereo partly shown) [Compound 433]: less than 100 nM; for `C=CC(=O)N1CCC(N(CC)c2nc(OC[C@@H]3CC4(CC4)CN3C)nc3c(F)c(-c4ccc(F)c5sc(N)c(C#N)c45)c(C(F)(F)F)cc23)[C@H]1C` (stereo partly shown) [Compound 405]: less than 100 nM; for `C=CC(=O)N1C[C@H](C)N(c2nc(OC[C@@]34CCCN3C[C@H](F)C4)nc3c(F)c(-c4ccc(F)c5sc(N)nc45)c(Cl)cc23)C[C@H]1C` [Compound 266]: less than 100 nM. Same read-out and setting: in the case of `C=CC(=O)N1CC(Nc2nc(OC[C@@H]3CCCN3C)nc3c(F)c(-c4cccc5oc(N)nc45)c(Cl)cc23)C1` [Compound 88] it was more than 1000 nM; in that of `C=CC(=O)N1CCN(c2nc(OC[C@@H]3CCCN3C)nc3c(F)c(-c4ccc(F)c5sc(N)nc45)c(C(F)(F)F)cc23)CC1` [Compound 71, 1-(4-(7-(2-amino-7-fluorobenzo[d]thiazol-4-yl)-8-fluoro-2-(((S)-1-methylpyrrolidin-2-yl)methoxy)-6-(trifluoromethyl)quinazolin-4-yl)piperazin-1-yl)prop-2-en-1-one], less than 100 nM. As to `C=CC(=O)N1CCC[C@@H](N(C)c2nc(OC[C@@]34CCCN3C[C@H](F)C4)nc3c(F)c(-c4ccc(F)c5sc(N)nc45)c(Cl)cc23)C1` (atropisomer, axis not shown) [Compound 241], the IC50 is less than 100 nM. In the case of `C=CC(=O)N1CCC(N(C)c2nc(OC[C@@H]3CCCN3C)nc3c(F)c(-c4ccc(F)c5sc(N)c(C#N)c45)c(Cl)cc23)[C@H]1COC` (stereo partly shown) [Compound 416], the IC50 is less than 100 nM.

For `C=CC(=O)N1[C@@H](C)CN(c2nc(OC[C@@]34CCCN3C[C@H](F)C4)nc3c(F)c(-c4ccc(F)c5sc(N)c(C#N)c45)c(C(F)(F)F)cc23)C[C@@H]1C` [Compound 321], the IC50 is less than 100 nM.

Still in this assay, the particulars now being: pERK inhibition IC50, NCI-H358 cells, 30 min incubation; read-out: PERK in H358 cell.
In the case of `C=CC(=O)N1C[C@H](C)N(c2nc(OC[C@@]34CCCN3C[C@H](F)C4)nc3c(F)c(-c4ccc(F)c5sc(N)nc45)c(C(F)(F)F)cc23)C[C@H]1C` (atropisomer, axis not shown) [Compound 267], the IC50 is less than 100 nM.
